{
  "source": "patent US20230040770A1",
  "about": "“HETEROCYCLIC COMPOUND AND USE THEREOF” (TAKEDA PHARMACEUTICAL COMPANY LIMITED, priority 2019, published 2023)",
  "data": [
    {"molecular_target": "T1, human orexin type 2 receptor (Homo sapiens, UniProt O43614)", "T1 construct": "expressed in transfected cells", "T1 sequence (O43614 1-444)": "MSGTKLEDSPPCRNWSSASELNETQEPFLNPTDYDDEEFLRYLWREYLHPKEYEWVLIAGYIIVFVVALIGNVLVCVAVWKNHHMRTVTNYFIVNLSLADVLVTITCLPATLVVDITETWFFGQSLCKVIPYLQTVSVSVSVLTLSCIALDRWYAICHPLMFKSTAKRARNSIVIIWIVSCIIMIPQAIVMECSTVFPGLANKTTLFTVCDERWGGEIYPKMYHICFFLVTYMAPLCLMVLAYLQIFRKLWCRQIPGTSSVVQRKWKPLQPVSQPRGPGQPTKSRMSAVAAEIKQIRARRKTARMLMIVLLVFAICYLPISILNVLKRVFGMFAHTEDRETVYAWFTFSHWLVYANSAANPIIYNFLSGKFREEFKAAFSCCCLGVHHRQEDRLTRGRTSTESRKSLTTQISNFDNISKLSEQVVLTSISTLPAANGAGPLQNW", "test": "Measurement of orexin type 2 receptor agonist activity (calcium indicator fluorescence, CHO cells forcibly expressing human OX2 receptor)", "assay_type": "cell-based", "details": "compound at 3 μM; 0% = DMSO, 100% = orexin A (human) 10 nM", "outline": "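Agonist response normalised between vehicle (0%) and orexin A at 10 nM final (100%), from kinetic Fluo-4 calcium signals recorded for about 2 min after compound addition. Cells: stable human OX2R CHO clone, dye-loaded 30 min at 37 °C plus 30 min at room temperature.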", "units": {"OX2R agonist activity (3 μM, %)": "%"}, "values": [
      {"smiles": "CCS(=O)(=O)N[C@H]1[C@@H](F)CN(C(=O)N(C)C)[C@H]1Cc1cccc(-c2cccc(C)c2F)c1F", "note": "[Example 408, (2S,3R,4S)-2-[(2,2′-difluoro-3′-methyl[1,1′-biphenyl]-3-yl)methyl]-3-[(ethanesulfonyl)amino]-4-fluoro-N,N-dimethylpyrrolidine-1-carboxamide]", "OX2R agonist activity (3 μM, %)": 88},
      {"smiles": "CS(=O)(=O)N[C@@H]1[C@H](Cc2cccc(-c3cccc(F)c3F)c2F)N(C(=O)[C@@H]2CCO2)CC1(F)F", "note": "[Example 133, N-{(2S,3R)-4,4-difluoro-1-((2S)-oxetane-2-carbonyl)-2-[(2,2′,3′-trifluoro[1,1′-biphenyl]-3-yl)methyl]pyrrolidin-3-yl}methanesulfonamide]", "OX2R agonist activity (3 μM, %)": 96},
      {"smiles": "Cc1cccc(-c2cccc(C[C@H]3[C@@H](NS(=O)(=O)N(C)C)C(F)(F)CN3C(=O)C3CCO3)c2F)c1", "note": "(stereo partly drawn) [Example 432, N′-[(2S,3R)-4,4-difluoro-2-[(2-fluoro-3′-methyl[1,1′-biphenyl]-3-yl)methyl]-1-(oxetane-2-carbonyl)pyrrolidin-3-yl]-N,N-dimethylsulfuric diamide]", "OX2R agonist activity (3 μM, %)": 95},
      {"smiles": "CCS(=O)(=O)N[C@H]1[C@@H](F)CN(C(=O)C(C)C)[C@H]1Cc1cccc(-c2cccc(F)c2F)c1F", "note": "[Example 297, N-{(2S,3R,4S)-4-fluoro-1-(2-methylpropanoyl)-2-[(2,2′,3′-trifluoro[1,1′-biphenyl]-3-yl)methyl]pyrrolidin-3-yl}ethanesulfonamide]", "OX2R agonist activity (3 μM, %)": 95},
      {"smiles": "Cc1cc(F)cc(-c2cccc(C[C@H]3[C@@H](NS(=O)(=O)C4CC4)C(F)(F)CN3C(=O)N3CCC3)c2F)c1", "note": "[Example 529, N-{(2S,3R)-1-(azetidine-1-carbonyl)-2-[(2,3′-difluroo-5′-methyl[1,1′-biphenyl]-3-yl)methyl]-4,4-difluoropyrrolidin-3-yl}cyclopropanesulfonamide]", "OX2R agonist activity (3 μM, %)": 95},
      {"smiles": "CN(C)C(=O)N1CC(F)(F)[C@H](NS(=O)(=O)N(C)C)[C@@H]1Cc1cccc(-c2cccc(F)c2)c1F", "note": "[Example 528, (2S,3R)-2-[(2,3′-difluoro[1,1′-biphenyl]-3-yl)methyl]-3-[(dimethylsulfamoyl)amino]-4,4-difluoro-N,N-dimethylpyrrolidine-1-carboxamide]", "OX2R agonist activity (3 μM, %)": 83},
      {"smiles": "CCS(=O)(=O)N[C@@H]1[C@H](Cc2cccc(-c3ccccc3)c2)N(C(=O)C2CCO2)CC1(F)F", "note": "(stereo partly drawn) [Example 51, N-[(2S,3R)-2-[([1,1′-biphenyl]-3-yl)methyl]-4,4-difluoro-1-(oxetane-2-carbonyl)pyrrolidin-3-yl]ethanesulfonamide]", "OX2R agonist activity (3 μM, %)": 99},
      {"smiles": "CCS(=O)(=O)N[C@@H]1[C@H](Cc2cccc(-c3cccc(F)c3F)c2F)N(C(=O)C2CC(F)C2)CC1(F)F", "note": "(stereo partly drawn) [Example 349, N-{(2S,3R)-4,4-difluoro-1-(3-fluorocyclobutane-1-carbonyl)-2-[(2,2′,3′-trifluoro[1,1′-biphenyl]-3-yl)methyl]pyrrolidin-3-yl}ethanesulfonamide]", "OX2R agonist activity (3 μM, %)": 98},
      {"smiles": "CCS(=O)(=O)N[C@@H]1[C@H](Cc2cccc(-c3cccc(F)c3F)c2F)N(C(=O)[C@H]2CCCO2)CC1(F)F", "note": "[Example 455, N-{(2S,3R)-4,4-difluoro-1-[(2R)-oxolane-2-carbonyl]-2-[(2,2′,3′-trifluoro[1,1′-biphenyl]-3-yl)methyl]pyrrolidin-3-yl}ethanesulfonamide]", "OX2R agonist activity (3 μM, %)": 85},
      {"smiles": "CCS(=O)(=O)N[C@@H]1[C@H](Cc2cccc(-c3cccc(OC(F)F)c3)c2F)N(C(=O)C2(O)CCC2)CC1(F)F", "note": "[Example 552, N-[(2S,3R)-2-{[3′-(difluoromethoxy)-2-fluoro[1,1′-biphenyl]-3-yl]methyl}-4,4-difluoro-1-(1-hydroxycyclobutane-1-carbonyl)pyrrolidin-3-yl]ethanesulfonamide]", "OX2R agonist activity (3 μM, %)": 94},
      {"smiles": "O=C(C1CCO1)N1C[C@H](F)[C@H](NS(=O)(=O)C2CC2)[C@@H]1Cc1cccc(-c2cccc(F)c2F)c1F", "note": "(stereo partly drawn) [Example 480, N-{(2S,3R,4S)-4-fluoro-1-(oxetane-2-carbonyl)-2-[(2,2′,3′-trifluoro[1,1′-biphenyl]-3-yl)methyl]pyrrolidin-3-yl}cyclopropanesulfonamide]", "OX2R agonist activity (3 μM, %)": 101},
      {"smiles": "CCS(=O)(=O)N[C@H]1[C@@H](F)CN(C(=O)C2CCO2)[C@H]1Cc1cccc(-c2cccc(C)c2F)c1F", "note": "(stereo partly drawn) [Example 499, N-[(2S,3R,4S)-2-[(2,2′-difluoro-3′-methyl[1,1′-biphenyl]-3-yl)methyl]-4-fluoro-1-(oxetane-2-carbonyl)pyrrolidin-3-yl]ethanesulfonamide]", "OX2R agonist activity (3 μM, %)": 96},
      {"smiles": "CCS(=O)(=O)N[C@@H]1[C@H](Cc2cccc(-c3ccccc3)c2)N(C(=O)C2CCO2)CC1(F)F", "note": "(stereo partly drawn) [Example 50, N-[(2S,3R)-2-[([1,1′-biphenyl]-3-yl)methyl]-4,4-difluoro-1-(oxetane-2-carbonyl)pyrrolidin-3-yl]ethanesulfonamide]", "OX2R agonist activity (3 μM, %)": 99},
      {"smiles": "CCS(=O)(=O)N[C@H]1[C@@H](F)CN(C(=O)N(C)C)[C@H]1Cc1cccc(-c2ccccc2)c1F", "note": "[Example 295, (2S,3R,4S)-3-[(ethanesulfonyl)amino]-4-fluoro-2-[(2-fluoro[1,1′-biphenyl]-3-yl)methyl]-N,N-dimethylpyrrolidine-1-carboxamide]", "OX2R agonist activity (3 μM, %)": 95},
      {"smiles": "CCS(=O)(=O)N[C@H]1[C@@H](F)CN(C(=O)C2CCO2)[C@H]1Cc1cccc(-c2cccc(F)c2F)c1F", "note": "(stereo partly drawn) [Example 307, N-{(2S,3R,4S)-4-fluoro-1-(oxetane-2-carbonyl)-2-[(2,2′,3′-trifluoro[1,1′-biphenyl]-3-yl)methyl]pyrrolidin-3-yl}ethanesulfonamide]", "OX2R agonist activity (3 μM, %)": 100},
      {"smiles": "CCS(=O)(=O)N[C@@H]1[C@H](Cc2cccc(-c3cc(C)cc(F)c3)c2F)N(C(=O)N(C)C)CC1(F)F", "note": "[Example 447, (2S,3R)-2-[(2,3′-difluoro-5′-methyl[1,1′-biphenyl]-3-yl)methyl]-3-[(ethanesulfonyl)amino]-4,4-difluoro-N,N-dimethylpyrrolidine-1-carboxamide]", "OX2R agonist activity (3 μM, %)": 95},
      {"smiles": "CS(=O)(=O)N[C@@H]1[C@H](Cc2cccc(-c3cccc(F)c3F)c2F)N(C(=O)[C@H]2CCO2)CC1(F)F", "note": "[Example 121, N-{(2S,3R)-4,4-difluoro-1-((2R)-oxetane-2-carbonyl)-2-[(2,2′,3′-trifluoro[1,1′-biphenyl]-3-yl)methyl]pyrrolidin-3-yl}methanesulfonamide]", "OX2R agonist activity (3 μM, %)": 94},
      {"smiles": "CCS(=O)(=O)N[C@@H]1[C@H](Cc2cccc(-c3cc(F)cc(F)c3)c2F)N(C(=O)N(C)C)CC1(F)F", "note": "[Example 282, (2S,3R)-3-[(ethanesulfonyl)amino]-4,4-difluoro-N,N-dimethyl-2-[(2,3′,5′-trifluoro[1,1′-biphenyl]-3-yl)methyl]pyrrolidine-1-carboxamide]", "OX2R agonist activity (3 μM, %)": 96},
      {"smiles": "CC(C)C(=O)N1CC(F)(F)[C@H](NS(=O)(=O)C2CC2)[C@@H]1Cc1cccc(-c2cc(F)cc(F)c2)c1F", "note": "[Example 166]", "OX2R agonist activity (3 μM, %)": 98},
      {"smiles": "CCS(=O)(=O)N[C@@H]1[C@H](Cc2cccc(-c3cc(F)ccc3F)c2F)N(C(=O)[C@H]2C[C@@H](F)C2)CC1(F)F", "note": "[Example 381, N-{(2S,3R)-4,4-difluoro-1-((1s,3R)-3-fluorocyclobutane-1-carbonyl)-2-[(2,2′,5′-trifluoro[1,1′-biphenyl]-3-yl)methyl]pyrrolidin-3-yl}ethanesulfonamide]", "OX2R agonist activity (3 μM, %)": 95},
      {"smiles": "CS(=O)(=O)N[C@@H]1[C@H](Cc2cccc(-c3cc(F)ccc3F)c2F)N(C(=O)C2CC(F)C2)CC1(F)F", "note": "(stereo partly drawn) [Example 437, N-{(2S,3R)-4,4-difluoro-1-(3-fluorocyclobutane-1-carbonyl)-2-[(2,2′,5′-trifluoro[1,1′-biphenyl]-3-yl)methyl]pyrrolidin-3-yl}methanesulfonamide]", "OX2R agonist activity (3 μM, %)": 84},
      {"smiles": "CCS(=O)(=O)N[C@@H]1[C@H](Cc2cccc(-c3cccc(F)c3F)c2)N(C(=O)C2CCO2)CC1(F)F", "note": "(stereo partly drawn) [Example 175, N-[(2S,3R)-2-[(2′,3′-difluoro[1,1′-biphenyl]-3-yl)methyl]-4,4-difluoro-1-(oxetane-2-carbonyl)pyrrolidin-3-yl]ethanesulfonamide]", "OX2R agonist activity (3 μM, %)": 95},
      {"smiles": "CCS(=O)(=O)N[C@@H]1[C@H](Cc2cccc(-c3cc(F)cc(F)c3)c2F)N(C(=O)C2(O)CCC2)CC1(F)F", "note": "[Example 272, N-{(2S,3R)-4,4-difluoro-1-(1-hydroxycyclobutane-1-carbonyl)-2-[(2,3′,5′-trifluoro[1,1′-biphenyl]-3-yl)methyl]pyrrolidin-3-yl}ethanesulfonamide]", "OX2R agonist activity (3 μM, %)": 88},
      {"smiles": "CS(=O)(=O)N[C@@H]1[C@H](Cc2cccc(-c3cccc(F)c3)c2)N(C(=O)[C@H]2CCCO2)CC1(F)F", "note": "[Example 26, N-{(2S,3R)-4,4-difluoro-2-[(3′-fluoro[1,1′-biphenyl]-3-yl)methyl]-1-[(2R)-oxolane-2-carbonyl]pyrrolidin-3-yl}methanesulfonamide]", "OX2R agonist activity (3 μM, %)": 100},
      {"smiles": "CCS(=O)(=O)N[C@H]1[C@@H](F)CN(C(=O)C2CC2)[C@H]1Cc1cccc(-c2cccc(C)c2F)c1F", "note": "[Example 519, N-{(2S,3R,4S)-1-(cyclopropanecarbonyl)-2-[(2,2′-difluoro-3′-methyl[1,1′-biphenyl]-3-yl)methyl]-4-fluoropyrrolidin-3-yl}ethanesulfonamide]", "OX2R agonist activity (3 μM, %)": 98}
    ]}
  ]
}
